Assay results published in US20240390376A1, “METHOD FOR PREVENTING ADVERSE PREGNANCY OUTCOMES DUE TO USE OF SELECTIVE SEROTONIN REUPTAKE INHIBITORS (SSRI) DURING GESTATION” (Wisconsin Alumni Research Foundation, priority 2023, published 2024).
Where two headings read alike, the source gives them in different places.

What was measured:
pregnant C57Bl/6J mice = conditions: experiment 1; for overall neonatal mortality: control 4.1%
Method: (§1) To investigate the role of ketanserin, an exemplary serotonin receptors 2A and 2C antagonist, on preventing SSRI-induced adverse pregnancy and neonatal outcomes, pregnant mice were treated with SSRI, serotonin, and SSRI/serotonin+ketanserin.

pregnant mice [1] = assay: Experiment 2: as experiment 1, all mice received ketanserin one hour before treatment; assay type: in vivo; conditions: for litter size / overall neonatal mortality / maternal weight gain / neonatal weight on postnatal day 0: experiment 2; for litter size / overall neonatal mortality: ketanserin 1 mg/kg daily one hour before saline, fluoxetine or serotonin; for maternal weight gain / neonatal weight on postnatal day 0: ketanserin 1 mg/kg daily one hour before saline or serotonin
Method: as §1

pregnant mice [2] = assay: Number of mouse pups born in control and treatment groups (FIG. 2A); assay type: in vivo; conditions: serotonin 4 mg/kg, fluoxetine 2 mg/kg, ketanserin 1 mg/kg, vs saline control
pregnant mice [3] = conditions: fluoxetine 2 mg/kg and 20 mg/kg vs control; dose-dependent; FIG. 1C
pregnant sheep [4] = conditions: in vivo
From the text: FIG. 1G compares lamb birthweights between a treatment group and control group.
FIG. 1G compares the lamb birthweights between the treatment group and control group.

[5] = cited from earlier work
pregnant sheep [6] = conditions: cited from earlier work
[7] = in vivo; cited from earlier work
placenta of mice = assay: Placenta immunostaining (Tunel, caspase 3, Ki67) and placental size, embryonic day 18.5 (FIG. 2B); conditions: fluoxetine 20 mg/kg
SERT null mice = assay: Ketanserin rescue of neonatal mortality in SERT null mice; assay type: in vivo; conditions: 49.0% without ketanserin
Method: By performing RNA sequencing of placenta from heterozygous Sert+/− mice vs homozygous Sert−/− knockout mice and their respective offspring, it was confirmed that lack of maternal, but not placental or fetal SERT, is associated with placental changes: more than 2,100 genes were differentially expressed in the placenta when the dam was SERT−/−. Importantly, ketanserin also rescued the neonatal mortality in SERT null mice (49.0 vs 23.8% within 24 hours of birth).

[8] = fluoxetine 2 mg/kg or serotonin 5 mg/kg daily

Question: For `CNCCC(Oc1ccc(C(F)(F)F)cc1)c1ccccc1` (centres unmarked) [fluoxetine], which overall neonatal mortality (pregnant C57Bl/6J mice; [8]) is on record?
Answer: The overall neonatal mortality was 11.6%.

Question: What about the litter size (pregnant mice [1]) of the same compound?
Answer: The litter size was 7.4±0.6.

Question: What about the overall neonatal mortality (pregnant mice [1]) of the same compound?
Answer: Its overall neonatal mortality is 24.3%.

Question: And the “number of pups born” value (pregnant mice [2])?
Answer: Its value is “significantly reduced”.

Question: And the mouse pup mortality (pregnant mice [3])?
Answer: Its mouse pup mortality is “decidedly negative effect”.

Question: And the average gestational length (pregnant sheep [4]; female, sheep)?
Answer: The average gestational length was 147.7 days.

Question: What about the lamb birthweights (pregnant sheep [4]) of the same compound?
Answer: Its lamb birthweights is “weighed significantly less”.

Question: What about the placentome diameter (pregnant sheep [4]) of the same compound?
Answer: The placentome diameter was “significantly smaller”.

Question: What about the placental transfer ([5]; in vivo) of the same compound?
Answer: Its placental transfer is “about 70%”.

Question: What about the “blood perfusion to the uterus” value (pregnant sheep [6]; third trimester pregnant sheep) of the same compound?
Answer: Its value is “rapidly decreased”.

Question: And the placentome growth (pregnant sheep [6]; treated during the last month of gestation)?
Answer: Its placentome growth is “decreased placentome growth”.

Question: What about the “number of pups born” value [7] of the same compound?
Answer: The value was “decrease”.

Question: What about the pregnancy rates [7] of the same compound?
Answer: Its pregnancy rates is “decreases”.

Question: And the pup mortality [7]?
Answer: The pup mortality was “increase”.

Question: What about the “Tunel-positive apoptotic cells in the placenta” value (placenta of mice) of the same compound?
Answer: Its value is “visualized”.

Question: What about the placental size (placenta of mice; ketanserin 1 mg/kg) of the same compound?
Answer: The placental size was “much reduced”.

Question: Which results are given for `O=C(c1ccc(F)cc1)C1CCN(CCn2c(=O)[nH]c3ccccc3c2=O)CC1` [ketanserin, 3-[2-[4-(4-fluorobenzoyl)piperidin-1-yl]ethyl]-1H-quinazoline-2,4-dione]?
Answer: maternal weight gain (pregnant mice [1]): 11.4 ± 0.5 g; neonatal weight on postnatal day 0 (pregnant mice [1]): 1.264 ± 0.01 g; litter size (pregnant mice [1]): 7.0±0.3; overall neonatal mortality (pregnant mice [1]): 8.5%; placental changes and adverse pregnancy and neonatal outcomes caused by SSRI use (pregnant mice [1]; summary of the ketanserin studies): prevented most placental changes and adverse pregnancy and neonatal outcomes; neonatal mortality within 24 hours of birth (SERT null mice): 23.8%

Question: With `NCCc1c[nH]c2ccc(O)cc12` [serotonin, 5-hydroxytryptamine] as the compound, how does the “maternal weight gain between DPC10.5 and the day before parturition” value (pregnant C57Bl/6J mice; fluoxetine 2 mg/kg or serotonin 5 mg/kg daily, DPC 10.5 until parturition) read?
Answer: The value was 8.0 ± 0.8 g.

Question: What about the overall neonatal mortality (pregnant C57Bl/6J mice; [8]) of the same compound?
Answer: The overall neonatal mortality was 32.3%.

Question: And the litter size (pregnant C57Bl/6J mice; fluoxetine 2 mg/kg or serotonin 5 mg/kg daily, control 8.3)?
Answer: The litter size was 5.2±0.5.

Question: What about the “neonatal weight on postnatal day 0” value (pregnant C57Bl/6J mice; serotonin 5 mg/kg daily) of the same compound?
Answer: Its value is 1.138 ± 0.028 g.

Question: What about the “neonatal weight on postnatal day 1” value (pregnant C57Bl/6J mice; serotonin 5 mg/kg daily) of the same compound?
Answer: Its value is 1.223 ± 0.028 g.

Question: And the maternal weight gain (pregnant mice [1])?
Answer: The maternal weight gain was 10.2 ± 0.6 g.

Question: And the “neonatal weight on postnatal day 0” value (pregnant mice [1])?
Answer: Its value is 1.197 ± 0.01 g.

Question: What about the litter size (pregnant mice [1]) of the same compound?
Answer: Its litter size is 7.0±0.5.

Question: And the overall neonatal mortality (pregnant mice [1])?
Answer: Its overall neonatal mortality is 22.8%.

Question: What about the “number of pups born” value (pregnant mice [2]) of the same compound?
Answer: The value was “significantly reduced”.

Question: For `CN[C@H]1CC[C@@H](c2ccc(Cl)c(Cl)c2)c2ccccc21` [sertraline], which placental transfer ([5]; low concentrations in the fetal circulation) is on record?
Answer: Its placental transfer is “limited placental transfer”.

Question: What about the “number of pups born” value [7] of the same compound?
Answer: Its value is “decrease”.

Question: And the pup mortality [7]?
Answer: Its pup mortality is “increase”.
